Measurements as given in publication PMC7855930, “Nontoxic Cobalt(III) Schiff Base Complexes with Broad‐Spectrum Antifungal Activity” (Chemistry (Weinheim an Der Bergstrasse, Germany), 2020).
Like-named read-outs stand apart in the source and are kept apart here.

Tests used:
[1] = system: C. albicans ATCC 90028; experiment: Antifungal MIC assay (broth microdilution in YNB); type: cell-based, Candida albicans; settings: for MIC: Candida albicans, ATCC90028
Excerpt: (§1) Yeast strains: Candida albicans (ATCC 90028, NCCLS 11), Cryptococcus neoformans (ATCC 208821, H99 type strain), Candida tropicalis (ATCC 750, type strain), Candida glabrata (ATCC 90030, NCCLS 84) and Cryptococcus deuterogattii (ATCC 32609, type strain) were obtained from the American Type Culture Collection (ATCC). Cryptococcus deuterogattii (CBS 7750), Candida auris (CBS 10913) and Candida auris (CBS 12373) were obtained from the CBS‐KNAW culture collection. The strains were maintained on glycerol/YPD (yeast extract‐peptone dextrose) broth (20:80 v/v) at −80 °C.
(§2) Antifungal minimum inhibitory concentration (MIC) assay: The cobalt complexes and antifungal control compounds were serially diluted in 50 μL of Yeast Nitrogen Broth (YNB; BD, Cat No. 233520 supplemented with 2 % glucose and 10 mM ammonium sulfate) two‐fold across the wells of non‐binding surface (NBS) 96‐well plates (Corning; Cat. No. 3641). Plates were set up in quadruplicate for each strain tested, and two biological replicates were conducted on separate assay days.
(§3) Yeast strains were cultured from glycerol onto YPD (Becton Dickinson 242720) agar at 30 °C for 72 h. For each strain, a minimum of five single colonies were taken from the agar plate and dissolved in sterile water and adjusted to form a yeast suspension of 1×10^6 to 5×10^6 CFU mL^−1 (as determined by OD530). The suspension was subsequently diluted into YNB media, and added to each well of the compound containing plates, giving a final cell density of 2.5×10^3 CFU mL^−1 and a total volume of 100 μL. Plates were covered and incubated at 35 °C for 36 h without shaking.
(§4) Growth inhibition of all strains was determined visually where the MIC was recorded as the lowest compound concentration with no visible growth. Fluconazole (Sigma F8929), ketoconazole (Sigma K1003) and micafungin (Sigma SML2288) were used as internal positive inhibitor controls for every strain tested.

[2] = system: C. auris CBS 10913; experiment: Antifungal MIC assay (broth microdilution in YNB); type: cell-based, Candida auris; settings: for MIC: Candidozyma auris, CBS10913
Excerpt: as §1, §2, §3, §4

[3] = system: C. auris CBS 12373; experiment: Antifungal MIC assay (broth microdilution in YNB); type: cell-based, Candida auris
Excerpt: as §1, §2, §3, §4

[4] = system: C. glabrata ATCC 90030; experiment: Antifungal MIC assay (broth microdilution in YNB); type: cell-based, Candida glabrata
Excerpt: as §1, §2, §3, §4

[5] = system: C. tropicalis ATCC 750; experiment: Antifungal MIC assay (broth microdilution in YNB); type: cell-based, Candida tropicalis
Excerpt: as §1, §2, §3, §4

[6] = system: C. deuterogattii ATCC 32609; experiment: Antifungal MIC assay (broth microdilution in YNB); type: cell-based, Cryptococcus deuterogattii
Excerpt: as §1, §2, §3, §4

[7] = system: C. deuterogattii CBS 7750; experiment: Antifungal MIC assay (broth microdilution in YNB); type: cell-based, Cryptococcus deuterogattii
Excerpt: as §1, §2, §3, §4

[8] = system: C. neoformans ATCC 208821; experiment: Antifungal MIC assay (broth microdilution in YNB); type: cell-based, Cryptococcus neoformans
Excerpt: as §1, §2, §3, §4

[9] = system: human red blood cells; experiment: Haemolysis assay; type: cell-based; settings: 1 h at 37 °C
Procedure: Haemolysis assay: Human whole blood (Australian Red Cross Blood Service) was washed three times with three volumes of 0.9 % NaCl and resuspended in a concentration of 0.5×10^8 cells mL^−1, determined by manual cell count in a Neubauer haemocytometer. Washed cells were added to compound containing plates (384‐well round bottom polypropylene plates, Corning 3657) for a final volume of 50 μL, shaken for 10 min and incubated for 1 h at 37 °C, without shaking. After incubation, the plates were centrifuged at 1000 g for 10 min to pellet cells and debris, 25 μL of the supernatant was then transferred to reading plates (384‐well flat bottom polystyrene plates, Corning CLS3680), with haemolysis determined by measuring the supernatant absorbance at […] (OD405), using cells without inhibitors as negative control and cells with 1 % Triton X‐100 (Sigma T8787) as positive control. HC10 and HC50 (concentration at which 10 and 50 % haemolysis is induced, respectively) were calculated by curve fitting the inhibition values vs. log(concentration) of four replicates using a sigmoidal dose–response function with variable fitting values for top, bottom and slope using Prism 8. Melittin (Sigma M2272) was used as positive haemolytic control on each plate. Human ethics approval from the University of Queensland Institutional Human Research Ethics Committee was obtained for use of human blood for haemolysis studies (approval number 201400003).

[10] = system: Escherichia coli ATCC 25922; experiment: CO-ADD bacterial broth microdilution MIC assay; type: cell-based; settings: CAMHB, 37 °C, 18 h, ≥ 80% inhibition; for MIC: Escherichia coli, ATCC25922, read-out: MIC Ec (Escherichia coli ATCC 25922)
Procedure: CO-ADD High Throughput Screening
Bacterial broth microdilution minimum inhibitory concentration (MIC) assay Bacterial strains were cultured in Cation-adjusted Mueller Hinton broth (CAMHB; Bacto Laboratories 212322) at 37 °C overnight. A sample of each culture was then diluted 40-fold in fresh CAMHB and incubated at 37 °C for 1.5-3 h. The resultant mid-log phase cultures were diluted with CAMHB (CFU/mL measured by OD600), then added to each well of the compound-containing plates (384-well non-binding surface (NBS) plates; Corning CLS3640), giving a cell density of 5 × 10^5 CFU/mL and a total volume of 50 µL. Plates were covered and incubated at 37 °C for 18 h without shaking. Inhibition of bacterial growth was determined measuring absorbance at 600 nm (OD600), using media only as negative control and bacteria without inhibitors as positive control. MIC values were determined as the lowest concentration at which the growth was inhibited at ≥ 80%. Colistin sulfate (Sigma C4461) and vancomycin HCl (Sigma 861987) were used as positive inhibitor controls on each plate for Gram-negative and Gram-positive bacteria, respectively.
Figure S1. 1H NMR (400 MHz) of [Co(ATS)(DMAP)2]NO3 (3) in DMSO-d6.
(1 picture or pasted object on this page, not shown here)

[11] = range of MICs, n=8, 35 °C, 36 h, visual
[12] = Table S1, read-out: MIC Candida albicans ATCC 90028
[13] = range of MICs, n=8, 35 °C, 36 h, visual, read-out: MIC C. albicans ATCC 90028
[14] = Table S1, read-out: MIC Candida auris CBS 10913
[15] = range of MICs, n=8, 35 °C, 36 h, visual, read-out: MIC C. auris CBS 10913
[16] = Candidozyma auris, CBS12373, Table S1, read-out: MIC Candida auris CBS 12373
[17] = Candidozyma auris, CBS12373, range of MICs, n=8, 35 °C, 36 h, visual, read-out: MIC C. auris CBS 12373
[18] = Nakaseomyces glabratus, ATCC90030, Table S1, read-out: MIC Candida glabrata ATCC 90030
[19] = Nakaseomyces glabratus, ATCC90030, range of MICs, n=8, 35 °C, 36 h, visual, read-out: MIC C. glabrata ATCC 90030
[20] = Candida tropicalis, ATCC750, Table S1, read-out: MIC Candida tropicalis ATCC 750
[21] = Candida tropicalis, ATCC750, range of MICs, n=8, 35 °C, 36 h, visual, read-out: MIC C. tropicalis ATCC 750
[22] = Cryptococcus deuterogattii, ATCC32609, Table S1, read-out: MIC Cryptococcus deuterogattii ATCC 32609
[23] = Cryptococcus deuterogattii, ATCC32609, range of MICs, n=8, 35 °C, 36 h, visual, read-out: MIC C. deuterogattii ATCC 32609
[24] = Cryptococcus deuterogattii, CBS7750, Table S1, read-out: MIC Cryptococcus deuterogattii CBS 7750
[25] = Cryptococcus deuterogattii, CBS7750, range of MICs, n=8, 35 °C, 36 h, visual, read-out: MIC C. deuterogattii CBS 7750
[26] = Cryptococcus neoformans, ATCC208821, Table S1, read-out: MIC Cryptococcus neoformans ATCC 208821
[27] = Cryptococcus neoformans, ATCC208821, range of MICs, n=8, 35 °C, 36 h, visual, read-out: MIC C. neoformans ATCC 208821

Row | SMILES | Haem HC10 (concentration at which 10 % haemolysis is reached) [9] [µM] | MIC [1, 12] [mg/L] | MIC [1, 13] [µM] | MIC [2, 14] [mg/L] | MIC [2, 15] [µM] | MIC [3, 16] [mg/L] | MIC [3, 17] [µM] | MIC [4, 18] [mg/L] | MIC [4, 19] [µM] | MIC [5, 20] [mg/L] | MIC [5, 21] [µM] | MIC [6, 22] [mg/L] | MIC [6, 23] [µM] | MIC [7, 24] [mg/L] | MIC [7, 25] [µM] | MIC [8, 26] [mg/L] | MIC [8, 27] [µM] | MIC [10] [mg/L] | also measured
1 | O=[N+]([O-])[O-].[NH3+][Co-3]123([NH3+])[O]c4c(F)cccc4C=[N+]1c1ccccc1[N+]2=Cc1cccc(F)c1[O]3 [Compound 7, [Co(3F‐salophen)(NH3)2]NO3] | >100 |  |  |  |  |  |  |  |  |  |  |  |  |  |  |  |  |  | MIC Candida albicans ATCC 90028 ([1]; Table S1): 23.9 to 47.8 mg/L; MIC C. albicans ATCC 90028 [1, 11]: 50 to 100 µM; MIC Candida auris CBS 10913 ([2]; Table S1): 0.37 to 0.75 mg/L; MIC C. auris CBS 10913, lowest value ('as low as') ([2]; lower end of MIC range): 0.78 µM; MIC C. auris CBS 10913 [2, 11]: 0.78 to 1.56 µM; MIC Candida auris CBS 12373 ([3]; Table S1): 23.9 mg/L; MIC ([3]; range of MICs, n=8, 35 °C, 36 h, visual, read-out: MIC C. auris CBS 12373): 50 µM; MIC Candida glabrata ATCC 90030 ([4]; Table S1): 47.8 mg/L; MIC ([4]; range of MICs, n=8, 35 °C, 36 h, visual, read-out: MIC C. glabrata ATCC 90030): 100 µM; MIC Candida tropicalis ATCC 750 ([5]; Table S1): 47.8 mg/L; MIC ([5]; range of MICs, n=8, 35 °C, 36 h, visual, read-out: MIC C. tropicalis ATCC 750): 100 µM; MIC Cryptococcus deuterogattii ATCC 32609 ([6]; Table S1): 47.8 mg/L; MIC ([6]; range of MICs, n=8, 35 °C, 36 h, visual, read-out: MIC C. deuterogattii ATCC 32609): 100 µM; MIC Cryptococcus deuterogattii CBS 7750 ([7]; Table S1): 47.8 mg/L; MIC ([7]; range of MICs, n=8, 35 °C, 36 h, visual, read-out: MIC C. deuterogattii CBS 7750): 100 µM; MIC Cryptococcus neoformans ATCC 208821 ([8]; Table S1): 47.8 mg/L; MIC ([8]; range of MICs, n=8, 35 °C, 36 h, visual, read-out: MIC C. neoformans ATCC 208821): 100 µM; MIC Ec (Escherichia coli ATCC 25922) [10]: > 32 mg/L
2 | CC(=N\NC(N)=S)/C(C)=N/NC(N)=S [Compound L1] | >100 | > 23.2 | > 100 | > 23.2 | > 100 | > 23.2 | > 100 | > 23.2 | > 100 | > 23.2 | > 100 | > 23.2 | > 100 | > 23.2 | > 100 | > 23.2 | > 100 | > 32 | 
3 | CC(/C=C(\O)C(F)(F)F)=N\CC/N=C(C)/C=C(\O)C(F)(F)F [Compound L2] | >100 | > 33.2 | > 100 | > 33.2 | > 100 | > 33.2 | > 100 | > 33.2 | > 100 | > 33.2 | > 100 | > 33.2 | > 100 | > 33.2 | > 100 | > 33.2 | > 100 | > 32 | 
